{"source": "patent US6897334B2", "about": "(Board of Regents of the University of Nebraska, priority 2003, dated 2005)", "origin": "cited, not measured here", "details": "background statement", "data": [{"smiles": "CCOC(=O)CN(C)C(=N)N", "note": "[creatine ethyl ester, Creatine ethyl ester]", "values": [{"measurement": "solubility in an aqueous solution", "result": "over 200 mg/ml"}]}]}
